# Assay results as given in patent US20070264659A1, “LUNG CANCER BIOMARKER DISCOVERY” (priority 2006, published 2007).
# Tested on: lung cancer cell lines A549, NCI-H146 and NCI-H358
# Test: Reactivation of 20 identified genes by treatment of demethylating agent (gene expression)
# Assay type: cell-based
# Conditions: lung cancer cells treated with DAC compared with untreated cells; FIG. 4B
# Protocol: Separately, lung cancer cell lines such as A549, NCI-H146 and NCI-H358 are treated with a demethylating agent DAC and assayed for reactivation of genes that are normally repressed in tumor cells. Overlapping genes between the tumor suppressed gene set and the demethylation reactivated gene set are considered to be candidate genes for lung cancer biomarkers. One hundred six (106) such overlapping genes were found (FIG. 1). Methylation sensitive enzyme/nucleic acid sequence based amplification analysis such as Hpa II Mspl enzyme digestion/PCR (or enzyme digestion post-PCR) further removed a few other genes that were not methylated in any of the lung cancer cell lines. To further confirm biochemically that the candidate gene was indeed methylated in tumor cells, bisulfite sequencing assays were conducted and methylation of the final 20 genes was verified.
# Gene expression profiles of the 20 genes were created. The expression level of the 20 genes was measured in lung cancer cell lines treated with DAC (FIG. 4B). Methylation status of the genes was also measured using methylation sensitive enzyme/nucleic acid sequence based amplification analysis such as Hpa II/MspI enzyme digestion/PCR (or enzyme digestion post-PCR) method on lung cancer cell lines and the results for the 20 genes is shown in FIG. 4A. The identified genes are not methylated in normal cells. […]
smiles,measurement,value
"Nc1ncn([C@H]2C[C@H](O)[C@@H](CO)O2)c(=O)n1 [DAC, 5 aza 2′-deoxycytidine]",gene expression of the 20 identified genes in lung cancer cells treated with demethylating agent,reactivated
